pKd: −log10 of the molar value. The source made the active and inactive calls.

The results in this text go back to ChEMBL document CHEMBL3991601, “The target landscape of clinical kinase drugs” (Science, 2017).

Assay [1] has as its target Serine/threonine-protein kinase 16 (Homo sapiens, UniProt O75716).
Assay [2] deals with T1, Electron transfer flavoprotein subunit beta (Homo sapiens, UniProt P38117).
T1 sequence (P38117 whole entry): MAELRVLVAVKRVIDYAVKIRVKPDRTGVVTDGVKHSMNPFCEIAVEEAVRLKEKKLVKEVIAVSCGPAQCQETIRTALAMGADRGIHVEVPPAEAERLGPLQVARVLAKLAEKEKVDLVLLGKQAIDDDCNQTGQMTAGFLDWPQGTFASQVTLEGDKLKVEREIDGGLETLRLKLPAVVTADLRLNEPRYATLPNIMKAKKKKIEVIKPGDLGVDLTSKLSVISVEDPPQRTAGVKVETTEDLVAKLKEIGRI

The next assay concerns the target T2, Glycine--tRNA ligase (Homo sapiens, UniProt P41250).
T2 sequence (P41250 whole entry): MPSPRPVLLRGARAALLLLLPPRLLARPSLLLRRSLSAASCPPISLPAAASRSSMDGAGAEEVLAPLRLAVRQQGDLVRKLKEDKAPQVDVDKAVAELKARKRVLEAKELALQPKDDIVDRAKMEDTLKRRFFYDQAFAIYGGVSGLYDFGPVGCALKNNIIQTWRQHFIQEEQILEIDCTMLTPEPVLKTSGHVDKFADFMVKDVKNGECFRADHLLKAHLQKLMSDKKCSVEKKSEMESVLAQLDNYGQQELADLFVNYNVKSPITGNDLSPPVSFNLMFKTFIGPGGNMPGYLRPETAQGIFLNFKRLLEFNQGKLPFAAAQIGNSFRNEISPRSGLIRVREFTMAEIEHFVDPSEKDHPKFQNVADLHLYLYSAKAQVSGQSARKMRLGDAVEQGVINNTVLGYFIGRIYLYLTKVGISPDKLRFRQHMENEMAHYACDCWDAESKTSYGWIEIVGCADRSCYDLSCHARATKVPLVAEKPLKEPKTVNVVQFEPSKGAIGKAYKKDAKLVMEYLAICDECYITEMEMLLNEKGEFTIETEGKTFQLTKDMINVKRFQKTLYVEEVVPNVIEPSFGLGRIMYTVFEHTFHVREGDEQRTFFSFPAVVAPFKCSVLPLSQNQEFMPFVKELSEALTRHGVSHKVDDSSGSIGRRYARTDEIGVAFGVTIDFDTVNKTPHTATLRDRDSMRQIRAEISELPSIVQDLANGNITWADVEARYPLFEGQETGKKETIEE

For assay [3], the target named is Serine/threonine-protein kinase SIK3 (Homo sapiens, UniProt Q9Y2K2).
The next assay has as its target Focal adhesion kinase 1 (Homo sapiens, UniProt Q05397).
The target of assay [4] is cAMP-dependent protein kinase type II-alpha regulatory subunit (Homo sapiens, UniProt P13861).
Assay [5] addresses Mitogen-activated protein kinase 11 (Homo sapiens, UniProt Q15759).
Assay [6] addresses T3, cGMP-dependent protein kinase 1 (Homo sapiens, UniProt Q13976).
T3 sequence (Q13976 whole entry): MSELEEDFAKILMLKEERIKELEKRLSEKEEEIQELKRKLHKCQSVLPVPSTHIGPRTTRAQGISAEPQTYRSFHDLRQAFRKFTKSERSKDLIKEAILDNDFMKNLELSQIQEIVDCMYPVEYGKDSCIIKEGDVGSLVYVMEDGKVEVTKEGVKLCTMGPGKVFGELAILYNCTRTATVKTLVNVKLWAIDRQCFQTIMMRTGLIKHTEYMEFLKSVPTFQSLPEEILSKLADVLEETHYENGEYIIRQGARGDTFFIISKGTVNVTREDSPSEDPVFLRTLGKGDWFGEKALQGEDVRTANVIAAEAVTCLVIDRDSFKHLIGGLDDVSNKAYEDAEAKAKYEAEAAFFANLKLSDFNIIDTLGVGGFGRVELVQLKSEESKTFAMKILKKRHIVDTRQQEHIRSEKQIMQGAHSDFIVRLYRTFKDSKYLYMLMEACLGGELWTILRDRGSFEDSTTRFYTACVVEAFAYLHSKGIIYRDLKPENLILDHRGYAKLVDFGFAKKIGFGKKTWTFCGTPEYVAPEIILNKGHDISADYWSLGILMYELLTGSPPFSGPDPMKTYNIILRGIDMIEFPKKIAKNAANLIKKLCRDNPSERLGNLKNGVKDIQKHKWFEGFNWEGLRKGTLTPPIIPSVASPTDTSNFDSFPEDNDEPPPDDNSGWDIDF
Note: in the data inactive means no Kd found up to 30 µM.

Chain of Focal adhesion kinase 1 (Q05397 whole entry): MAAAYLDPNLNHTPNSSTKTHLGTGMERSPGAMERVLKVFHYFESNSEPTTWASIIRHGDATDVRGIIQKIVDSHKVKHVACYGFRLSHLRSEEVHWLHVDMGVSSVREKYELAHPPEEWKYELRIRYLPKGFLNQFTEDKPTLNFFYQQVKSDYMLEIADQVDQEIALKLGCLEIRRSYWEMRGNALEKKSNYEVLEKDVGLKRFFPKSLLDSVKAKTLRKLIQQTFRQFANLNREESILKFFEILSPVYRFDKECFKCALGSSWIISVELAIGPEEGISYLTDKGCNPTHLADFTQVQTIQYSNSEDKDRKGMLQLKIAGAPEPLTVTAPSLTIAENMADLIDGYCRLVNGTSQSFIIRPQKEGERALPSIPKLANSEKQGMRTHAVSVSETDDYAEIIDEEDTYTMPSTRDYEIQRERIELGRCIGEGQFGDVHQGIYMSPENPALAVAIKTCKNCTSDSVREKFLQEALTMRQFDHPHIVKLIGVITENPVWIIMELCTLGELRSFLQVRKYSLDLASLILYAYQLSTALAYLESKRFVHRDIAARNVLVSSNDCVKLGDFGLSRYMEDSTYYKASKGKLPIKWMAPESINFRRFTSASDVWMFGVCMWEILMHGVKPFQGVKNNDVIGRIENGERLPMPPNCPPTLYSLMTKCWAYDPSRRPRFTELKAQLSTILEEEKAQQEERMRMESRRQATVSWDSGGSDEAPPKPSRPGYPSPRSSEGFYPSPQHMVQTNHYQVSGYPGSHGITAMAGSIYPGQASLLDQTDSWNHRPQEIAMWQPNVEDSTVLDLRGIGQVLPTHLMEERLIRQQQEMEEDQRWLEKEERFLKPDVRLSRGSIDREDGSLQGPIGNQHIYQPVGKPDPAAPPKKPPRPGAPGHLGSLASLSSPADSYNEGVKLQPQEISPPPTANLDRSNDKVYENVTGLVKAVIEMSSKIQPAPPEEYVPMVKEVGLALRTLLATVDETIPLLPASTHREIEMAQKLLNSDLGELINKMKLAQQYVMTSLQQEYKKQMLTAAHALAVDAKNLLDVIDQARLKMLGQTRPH
Chain of Serine/threonine-protein kinase 16 (O75716 whole entry): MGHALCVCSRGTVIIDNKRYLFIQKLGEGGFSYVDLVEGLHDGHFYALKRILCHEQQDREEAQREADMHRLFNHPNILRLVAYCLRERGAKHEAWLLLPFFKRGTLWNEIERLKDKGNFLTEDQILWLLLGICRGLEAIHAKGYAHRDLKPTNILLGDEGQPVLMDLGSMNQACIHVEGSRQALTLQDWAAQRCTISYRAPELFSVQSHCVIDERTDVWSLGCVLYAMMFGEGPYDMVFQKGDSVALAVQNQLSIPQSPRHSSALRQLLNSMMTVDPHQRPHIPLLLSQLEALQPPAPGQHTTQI
Chain of Mitogen-activated protein kinase 11 (Q15759 whole entry): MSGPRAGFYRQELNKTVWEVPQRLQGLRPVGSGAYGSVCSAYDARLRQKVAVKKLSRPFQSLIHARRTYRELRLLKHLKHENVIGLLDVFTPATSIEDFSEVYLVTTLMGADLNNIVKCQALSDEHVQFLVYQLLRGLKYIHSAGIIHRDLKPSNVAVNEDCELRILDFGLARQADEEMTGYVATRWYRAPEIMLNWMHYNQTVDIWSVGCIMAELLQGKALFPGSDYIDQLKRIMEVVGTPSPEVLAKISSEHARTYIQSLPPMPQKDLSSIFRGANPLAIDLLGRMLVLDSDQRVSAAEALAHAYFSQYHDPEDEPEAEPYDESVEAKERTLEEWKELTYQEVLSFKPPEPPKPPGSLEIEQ
Chain of Serine/threonine-protein kinase SIK3 (Q9Y2K2 whole entry): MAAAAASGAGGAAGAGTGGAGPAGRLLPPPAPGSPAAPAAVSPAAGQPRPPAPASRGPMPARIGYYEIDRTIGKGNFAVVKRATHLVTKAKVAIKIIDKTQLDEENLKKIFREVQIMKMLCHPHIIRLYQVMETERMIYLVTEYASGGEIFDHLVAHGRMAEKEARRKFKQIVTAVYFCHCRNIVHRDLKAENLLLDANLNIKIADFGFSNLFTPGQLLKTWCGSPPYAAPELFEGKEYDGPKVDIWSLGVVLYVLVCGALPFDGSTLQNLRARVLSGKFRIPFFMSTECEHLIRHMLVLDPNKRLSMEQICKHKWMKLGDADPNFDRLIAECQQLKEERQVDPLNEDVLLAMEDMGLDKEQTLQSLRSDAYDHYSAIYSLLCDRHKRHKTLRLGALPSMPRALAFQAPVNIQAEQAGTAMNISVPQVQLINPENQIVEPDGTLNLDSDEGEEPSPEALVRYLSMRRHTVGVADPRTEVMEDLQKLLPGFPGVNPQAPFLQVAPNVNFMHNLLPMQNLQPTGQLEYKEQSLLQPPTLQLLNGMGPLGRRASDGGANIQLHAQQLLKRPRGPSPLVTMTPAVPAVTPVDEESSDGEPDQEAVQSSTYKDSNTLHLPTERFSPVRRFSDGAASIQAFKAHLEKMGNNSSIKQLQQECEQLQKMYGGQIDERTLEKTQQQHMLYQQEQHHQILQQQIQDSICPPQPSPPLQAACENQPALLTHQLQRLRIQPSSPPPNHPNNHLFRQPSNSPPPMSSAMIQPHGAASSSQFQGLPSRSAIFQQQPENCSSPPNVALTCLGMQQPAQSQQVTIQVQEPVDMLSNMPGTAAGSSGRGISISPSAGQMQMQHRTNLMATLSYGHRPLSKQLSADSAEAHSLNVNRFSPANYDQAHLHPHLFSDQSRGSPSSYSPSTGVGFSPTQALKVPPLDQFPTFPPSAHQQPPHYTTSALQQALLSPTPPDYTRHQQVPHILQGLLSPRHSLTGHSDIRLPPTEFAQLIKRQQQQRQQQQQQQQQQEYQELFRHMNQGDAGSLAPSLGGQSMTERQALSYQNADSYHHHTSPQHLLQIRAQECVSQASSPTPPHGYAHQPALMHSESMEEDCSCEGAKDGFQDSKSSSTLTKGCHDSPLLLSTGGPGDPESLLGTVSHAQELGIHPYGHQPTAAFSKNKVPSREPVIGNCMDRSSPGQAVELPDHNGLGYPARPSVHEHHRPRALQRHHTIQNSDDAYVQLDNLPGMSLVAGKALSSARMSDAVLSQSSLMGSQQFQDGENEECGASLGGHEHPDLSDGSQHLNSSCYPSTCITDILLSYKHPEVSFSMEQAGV
Chain of cAMP-dependent protein kinase type II-alpha regulatory subunit (P13861 whole entry): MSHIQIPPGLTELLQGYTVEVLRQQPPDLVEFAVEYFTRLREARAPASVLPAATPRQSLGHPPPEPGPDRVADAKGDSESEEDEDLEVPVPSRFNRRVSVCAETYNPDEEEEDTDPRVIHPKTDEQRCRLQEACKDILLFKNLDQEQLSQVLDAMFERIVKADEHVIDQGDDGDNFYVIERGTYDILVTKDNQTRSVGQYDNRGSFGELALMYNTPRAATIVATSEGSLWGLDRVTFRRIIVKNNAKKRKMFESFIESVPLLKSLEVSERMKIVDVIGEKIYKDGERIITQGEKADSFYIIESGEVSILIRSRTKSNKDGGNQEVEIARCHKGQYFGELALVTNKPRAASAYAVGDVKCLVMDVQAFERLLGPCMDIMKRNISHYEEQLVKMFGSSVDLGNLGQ

In general, Kd refers to a measure of binding affinity in units of concentration. Consider `CC[C@H](Nc1ncnc2[nH]cnc12)c1nc2cccc(F)c2c(=O)n1-c1ccccc1` [IDELALISIB], for which the Kd (in assay [1]; in assay [2]; at Glycine--tRNA ligase; in assay [3]; on Focal adhesion kinase 1; in assay [4]) was > 30 µM (inactive) throughout. In addition, the Kd in assay [5] and in assay [6] was > 30 µM (inactive) throughout.

As for `C[C@@H](c1ccc2nccn2c1)n1nnc2ncc(-c3cnn(C)c3)nc21` [SAVOLITINIB], the Kd (in assay [1]; in assay [2]; at Glycine--tRNA ligase; in assay [3]; at Focal adhesion kinase 1; in assay [4]) was > 30 µM (inactive) throughout. In addition, the Kd in assay [5] and in assay [6] was > 30 µM (inactive) each time.

Consider `CN1N=C(N)c2cn([C@@H]3O[C@H](COP(=O)(O)O)[C@@H](O)[C@H]3O)c3ncnc1c23` [TRICIRIBINE PHOSPHATE], for which the Kd (in assay [1]; in assay [2]; on Glycine--tRNA ligase; in assay [3]; on Focal adhesion kinase 1; in assay [4]) was > 30 µM (inactive) throughout. The Kd in assay [5] and in assay [6] was > 30 µM (inactive) each time.

With `CNC(=O)CN1CCC(Oc2cc3c(Nc4cccc(Cl)c4F)ncnc3cc2OC)CC1` [SAPITINIB], the Kd (in assay [1]; in assay [2]; on Glycine--tRNA ligase; in assay [3]; on Focal adhesion kinase 1; in assay [4]) was > 30 µM (inactive) in each case. Also, the Kd in assay [5] and in assay [6] was > 30 µM (inactive) throughout.

On to `O=C(c1ccc(F)c(F)c1Nc1ccc(I)cc1F)N1CC(O)([C@@H]2CCCCN2)C1` [COBIMETINIB], for which the Kd (in assay [1]; in assay [2]; on Glycine--tRNA ligase; in assay [3]; on Focal adhesion kinase 1; in assay [4]) was > 30 µM (inactive) each time. For the same compound, the Kd in assay [5] and in assay [6] was > 30 µM (inactive) each time.

On to `CCS(=O)(=O)N1CC(CC#N)(n2cc(-c3ncnc4[nH]ccc34)cn2)C1` [BARICITINIB], for which the Kd (in assay [1]; in assay [2]; at Glycine--tRNA ligase; in assay [3]; at Focal adhesion kinase 1; in assay [4]) was > 30 µM (inactive) each time. For the same compound, the Kd in assay [5] and in assay [6] was > 30 µM (inactive) throughout.

Broadly, the pKd is −log10 of the Kd, conventionally taken in molar units. In the case of `Cc1ccc(NC(=O)c2ccc(CN3CC[C@H](N(C)C)C3)c(C(F)(F)F)c2)cc1Nc1nccc(-c2cncnc2)n1` [BAFETINIB], the Kd (in assay [1]; in assay [2]; at Glycine--tRNA ligase; in assay [3]; at Focal adhesion kinase 1; in assay [4]) was > 30 µM (inactive) throughout. Further, the Kd in assay [6] was > 30 µM (inactive). For the same compound, the negative logarithm of the Kd (pKd) in assay [5] was 5.76.

Consider `Cc1ccc(-n2nc(C(C)(C)C)cc2NC(=O)NCc2cc(F)ccc2Oc2ccc3c(cnn3CCO)c2)cc1` [PEXMETINIB], for which the Kd was > 30 µM (inactive) in assay [1]; > 30 µM (inactive) in assay [2]; > 30 µM (inactive) at Glycine--tRNA ligase; > 30 µM (inactive) in assay [3]; > 30 µM (inactive) on Focal adhesion kinase 1; 0.192 µM (active) in assay [5]. The Kd in assay [6] is > 30 µM (inactive).

Take `CNS(=O)(=O)Nc1nccc(Cc2c(C)c3ccc(Oc4ncccn4)cc3oc2=O)c1F` [AVUTOMETINIB]: the Kd (in assay [1]; in assay [2]; on Glycine--tRNA ligase; in assay [3]; on Focal adhesion kinase 1; in assay [4]) was > 30 µM (inactive) throughout. Besides, the Kd in assay [5] and in assay [6] was > 30 µM (inactive) in each case.

For `COc1ccc(-c2ccc3c(N4CCOC[C@@H]4C)nc(N4CCOC[C@@H]4C)nc3n2)cc1CO` [AZD-8055], the Kd (in assay [1]; in assay [2]; on Glycine--tRNA ligase; in assay [3]; on Focal adhesion kinase 1; in assay [4]) was > 30 µM (inactive) each time. Further, the Kd in assay [5] and in assay [6] was > 30 µM (inactive) throughout.

`O=C(O)[C@]1(Cc2cccc(Nc3nccs3)n2)CC[C@@H](Oc2cccc(Cl)c2F)CC1` [MK-5108]: the Kd (in assay [1]; in assay [2]; at Glycine--tRNA ligase; in assay [3]; on Focal adhesion kinase 1; in assay [4]) was > 30 µM (inactive) each time. Further, the Kd in assay [5] and in assay [6] was > 30 µM (inactive) each time.

With `COc1cc2nccc(Oc3ccc(NC(=O)Nc4cc(C)on4)c(Cl)c3)c2cc1OC` [TIVOZANIB], the Kd (in assay [1]; in assay [2]; at Glycine--tRNA ligase; in assay [3]; on Focal adhesion kinase 1; in assay [4]) was > 30 µM (inactive) each time. In assay [6], the Kd is > 30 µM (inactive).

Regarding `COc1cc(N2CCC(N3CCN(C)CC3)CC2)ccc1Nc1ncnc(Nc2ccccc2S(=O)(=O)C(C)C)n1` [ASP-3026], the Kd in assay [1] was > 30 µM (inactive); in assay [2], > 30 µM (inactive); at Glycine--tRNA ligase it was > 30 µM (inactive); in assay [3], > 30 µM (inactive); on Focal adhesion kinase 1 it was 0.074 µM (active); in assay [4], > 30 µM (inactive). Further, the Kd in assay [5] and in assay [6] was > 30 µM (inactive) each time.

Regarding `CN1CCC(CNc2ccc3ncc(-c4cccc(OC(F)(F)F)c4)n3n2)CC1` [SGI-1776], the Kd (in assay [1]; in assay [2]; on Glycine--tRNA ligase; in assay [3]; on Focal adhesion kinase 1; in assay [4]) was > 30 µM (inactive) each time. The Kd in assay [5] and in assay [6] was > 30 µM (inactive) in each case.

Consider `C[C@@H]1CN(Cc2ccc(F)cc2)[C@@H](C)CN1C(=O)c1cc2c(C(=O)C(=O)N(C)C)cn(C)c2cc1Cl` [TALMAPIMOD], for which the Kd (in assay [1]; in assay [2]; on Glycine--tRNA ligase; in assay [3]; on Focal adhesion kinase 1; in assay [4]) was > 30 µM (inactive) throughout. For the same compound, in assay [6], the Kd was > 30 µM (inactive).

As for `CN(C)C(=O)c1cc2cnc(Nc3ccc(N4CCNCC4)cn3)nc2n1C1CCCC1` [RIBOCICLIB], the Kd (in assay [1]; in assay [2]; on Glycine--tRNA ligase; in assay [3]; at Focal adhesion kinase 1; in assay [5]) was > 30 µM (inactive) in each case. For the same compound, the Kd in assay [6] was > 30 µM (inactive).
